{"source": "paper doi:10.1101/2025.08.17.670703v1", "about": "(biorxiv, 2025)", "key": {"[1]": {"target": "T1, HEV-PLpro (HEV papain-like cysteine protease) (Hepatitis E virus (strain Pakistan), UniProt P33424)", "T1 sequence (P33424 432-592)": "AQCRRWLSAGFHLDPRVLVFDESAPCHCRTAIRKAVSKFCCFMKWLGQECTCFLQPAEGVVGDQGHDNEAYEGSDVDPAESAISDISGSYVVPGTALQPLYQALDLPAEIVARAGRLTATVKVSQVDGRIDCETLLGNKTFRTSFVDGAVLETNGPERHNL", "assay": "fluorogenic protease assay, secondary plot of Km' vs [I]", "assay_type": "biochemical"}, "[2]": {"target": "T1, HEV-PLpro (HEV papain-like cysteine protease)", "assay": "fluorogenic protease assay", "assay_type": "biochemical"}}}
{"compound": "NC(=O)c1ncn([C@@H]2O[C@H](CO)[C@@H](O)[C@H]2O)n1", "note": "[RBV, ribavirin]", "values": [{"measurement": "Ki", "setting": "[1]", "result": 47.6, "unit": "µM"}, {"measurement": "IC50", "setting": "[2]", "result": 78.3, "unit": "µM"}]}
